Structures can show the parent of a compound that is named as a salt.
How the values were obtained:
[1] = molecular target: T1, human α1b receptor (Homo sapiens, UniProt P35368); assay: Radioligand binding ([3H]prazosin) at cloned human α1b receptor; details: membranes of transfected LM(tk−) cells, [3H]prazosin 0.5 nM; read-out: Binding affinity hα1b
T1 construct: The entire coding region of α1b (1563 bp); expressed in transfected cells
T1 sequence (P35368 1-520): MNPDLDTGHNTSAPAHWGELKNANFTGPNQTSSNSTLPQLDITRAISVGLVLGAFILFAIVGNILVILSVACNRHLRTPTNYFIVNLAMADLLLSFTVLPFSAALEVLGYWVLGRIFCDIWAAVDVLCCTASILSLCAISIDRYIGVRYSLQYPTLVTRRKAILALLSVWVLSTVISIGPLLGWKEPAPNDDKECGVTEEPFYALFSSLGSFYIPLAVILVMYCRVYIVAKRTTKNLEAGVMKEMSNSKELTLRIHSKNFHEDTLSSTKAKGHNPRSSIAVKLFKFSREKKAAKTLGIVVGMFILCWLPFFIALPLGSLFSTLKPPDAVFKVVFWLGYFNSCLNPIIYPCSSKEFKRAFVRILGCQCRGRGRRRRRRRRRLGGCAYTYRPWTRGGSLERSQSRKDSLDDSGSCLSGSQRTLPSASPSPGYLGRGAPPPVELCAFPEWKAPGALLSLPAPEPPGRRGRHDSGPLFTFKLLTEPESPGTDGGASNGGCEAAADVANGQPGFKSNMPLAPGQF
Experimental: (§1) The activity of compounds at the different human receptors was determined in vitro using cultured cell lines that selectively express the receptor of interest. These cell lines were prepared by transfecting the cloned cDNA or cloned genomic DNA or constructs containing both genomic DNA and cDNA encoding the human α-adrenergic receptors as follows:
α1b Human Adrenergic Receptor
The entire coding region of α1b (1563 bp), including 200 base pairs and 5′ untranslated sequence (5′ UT) and 600 bp of 3′ untranslated sequence (3′ UT), was cloned into the EcoRI site of pCEXV-3 eukaryotic expression vector.
The construct involved ligating the full-length containing EcoRI brainstem cDNA fragment from λ ZapII into the expression vector. Stable cell lines were selected as described above. The cell line used herein was designated L-α1B and was deposited with the American Type Culture Collection, 12301 Parklawn Drive, Rockville, Md. 20852, U.S.A. under the provisions of the Budapest Treaty for the International Recognition of the Deposit of Microorganisms for the Purposes of Patent Procedure. The cell line L-α1B was accorded ATCC Accession No. CR 11139, on Sep. 29, 1992.
(§2) Radioligand Binding Assays for α1 Receptors
(§3) Transfected cells from culture flasks were scraped into 5 ml of 5 mM Tris-HCl, 5 mM EDTA, pH 7.5, and lysed by sonication. The cell lysates were centrifuged at 1000 rpm for 5 min at 4° C., and the supernatant was centrifuged at 30,000×g for 20 min at 4° C. The pellet was suspended in 50 mM Tris-HCl, 1 mM MgCl2, and 0.1% ascorbic acid at pH 7.5. Binding of the α1 antagonist [^3H]prazosin (0.5 nM, specific activity 76.2 Ci/mmol) to membrane preparations of LM(tk−) cells was done in a final volume of 0.25 ml and incubated at 37° C. for 20 min. Nonspecific binding was determined in the presence of 10 μM phentolamine. The reaction was stopped by filtration through GF/B filters using a cell harvester. Inhibition experiments, routinely consisting of 7 concentrations of the tested compounds, were analyzed using a non-linear regression curve-fitting computer program to obtain Ki values.

[2] = molecular target: T2, human α1a receptor (Homo sapiens, UniProt P35348); assay: Radioligand binding ([3H]prazosin) at cloned human α1a receptor; details: hα1a; membranes of transfected LM(tk−) cells, [3H]prazosin 0.5 nM; read-out: Binding affinity hα1a
T2 construct: expressed in transfected cells
T2 sequence (P35348 1-466): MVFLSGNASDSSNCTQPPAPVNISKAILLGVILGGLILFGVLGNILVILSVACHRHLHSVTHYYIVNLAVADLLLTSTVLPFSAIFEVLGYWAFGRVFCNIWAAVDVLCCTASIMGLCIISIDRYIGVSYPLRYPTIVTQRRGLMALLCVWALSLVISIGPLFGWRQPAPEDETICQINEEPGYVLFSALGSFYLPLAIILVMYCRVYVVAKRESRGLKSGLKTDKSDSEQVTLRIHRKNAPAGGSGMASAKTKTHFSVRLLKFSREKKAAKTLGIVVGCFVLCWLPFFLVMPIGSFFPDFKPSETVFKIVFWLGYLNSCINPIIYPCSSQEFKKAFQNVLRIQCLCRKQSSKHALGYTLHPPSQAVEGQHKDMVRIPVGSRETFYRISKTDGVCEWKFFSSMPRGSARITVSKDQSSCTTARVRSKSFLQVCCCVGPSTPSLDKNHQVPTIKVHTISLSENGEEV
Experimental: as §1
α1a Human Adrenergic Receptor
The entire coding region of α1a (1401 bp), including 400 base pairs of 5′ untranslated sequence (5′ UT) and 200 bp of 3′ untranslated sequence (3′ UT), was cloned into the KpnI site of the polylinker-modified pCEXV-3-derived eukaryotic expression vector, EXJ.RH. The construct involved ligating three partial overlapping fragments: a 5′ 0.6 kb HincII genomic clone, a central 1.8 EcoRI hippocampal cDNA clone,. and a 3′ 0.6 Kb PstI genomic clone. The hippocampal cDNA fragment overlaps with the 5′ and 3′ genomic clones so that the HincII and PstI sites at the 5′ and 3′ ends of the cDNA clone, respectively, were utilized for ligation. This full-length clone was cloned into the KpnI site of the expression vector, using the 5′ and 3′ KpnI sites of the fragment, derived from vector (i.e., pBluescript) and 31-untranslated sequences, respectively. Stable cell lines were selected as described above. The stable cell line expressing the human α1a receptor used herein was designated L-α1C (old nomenclature) and was deposited with the American Type Culture Collection, 12301 Parklawn Drive, Rockville, Md. 20852, U.S.A. under the provisions of the Budapest Treaty for the International Recognition of the Deposit of Microorganisms for the Purposes of Patent Procedure. The cell line expressing the human α1a receptor was accorded Accession No. CR 11140, on Sep. 25, 1992.
as §2, §3

Row | SMILES | Ki [1] [µM] | Ki [2] [µM]
1 | O=C1OCC2=C1C(c1ccc(F)c(F)c1)N(C(=O)NCCCN1CCC(c3ccccn3)CC1)C(=O)N2 (single isomer, unassigned; (+)) [Compound 8, (+)-1-3-{[4-(3,4-Difluorophenyl)-2,5-dioxo-1,2,5,7-tetrahydro-4H-furo[3,4-d]-pyrimidine-3-carbonyl]amino}-propyl-4-(2-pyridyl)-piperidine] | 1.6 | 0.003
2 | COCC1=C(C(=O)OC)[C@H](c2ccc(F)c(F)c2)N(C(=O)NCCCO)C(=O)N1 [Compound 1, (+)-1,2,3,6-Tetrahydro-1-(3-hydroxypropyl)carboxamido-5-methoxycarbonyl-4-methoxymethyl-6-(3,4-difluorophenyl)-2-oxo-pyrimidine] | > 50 | 0.26
3 | COCC1=C(C(=O)OC)[C@H](c2ccc(F)c(F)c2)N(C(=O)NCCC[n+]2ccc(-c3ccccn3)cc2)C(=O)N1 [Compound 3, 4-(2-Pyridyl)-1-{3-[5-carboxymethyl-4-methoxymethyl-2-oxo-6(S)-(3,4-difluorphenyl)-1,2,3,6-tetrahydropyrimidin-1-yl]carboxyaminopropyl}pyridinium chloride] | > 2 | 0.212
4 | O=C(O)CCNC(=O)N1C(=O)NC2=C(C(=O)OC2)[C@@H]1c1ccc(F)c(F)c1 [Compound 9] | > 2 | > 0.5

Compounds with a lower Ki [1], results first:

Row | Ki [1] [µM] | Ki [2] [µM] | SMILES
5 | 1.5 | 0.0003 | COCC1=C(C(=O)OC)[C@H](c2ccc(F)c(F)c2)N(C(=O)NCCCN2CCC(c3cccc[n+]3[O-])CC2)C(=O)N1 [Compound 2, (+)-1,2,3,6-Tetrahydro-1-{N-[4-(2-pyridyl)piperidin-1-yl]propyl}carboxamido-5-methoxycarbonyl-4-methoxymethyl-6-(3,4-difluorophenyl)-2-oxopyrimidine-pyridine-N-oxide hydrochloride]
6 | 0.53 | 0.0008 | COC(=O)C1=C(CO)NC(=O)N(C(=O)NCCCN2CCC(c3ccccn3)CC2)[C@H]1c1ccc(F)c(F)c1 [Compound 7, (+)-1,2,3,6-Tetrahydro-1-{N-[4-(2-pyridyl)piperidin-1-yl]propyl}carboxamido-5-methoxycarbonyl-4-hydroxymethyl-6-(3,4-difluorophenyl)-2-oxopyrimidine]

From patent US6680323B2, “Dihydropyrimidines and uses thereof” (Synaptic Pharmaceutical Corporation, priority 1998, dated 2004)
